This note sets out measurements from ChEMBL document CHEMBL5614367, “Hydroxamic acid hybrids: Histone deacetylase inhibitors with anticancer therapeutic potency” (Eur J Med Chem, 2023).

Usually IC50 stands for the midpoint of a concentration-inhibition curve.

Data set [1] has as its system MDA-MB-231. Put plainly: Antiproliferative activity against human MDA-MB-231 cells assessed as inhibition of cell growth incubated for 72 hrs by MTT assay. It counts as functional, cell-based. The settings on record: MDA-MB-231, 72 h. For orientation: Tetrazolium dyes change colour on reduction, which living cells bring about.
The subject of data set [2] is MCF7. Put plainly: Antiproliferative activity against human MCF7 cells assessed as inhibition of cell growth incubated for 72 hrs by MTT assay. The settings on record: MCF7, 72 h. It counts as functional, cell-based.
For a further data set, the system named is PC-3. Put plainly: Antiproliferative activity against human PC-3 cells assessed as inhibition of cell growth incubated for 72 hrs by MTT assay. Particulars: PC-3, 72 h. It counts as functional, cell-based.
Another data set relates to SK-N-BE(2). Put plainly: Antiproliferative activity against human SK-N-BE(2) cells assessed as inhibition of cell growth incubated for 72 hrs by MTT assay. It is filed as functional, cell-based. The settings on record: SKNBE2, 72 h.
For the next data set, the system named is KG-1. Kind of data set: Antiproliferative activity against human KG-1 cells assessed as inhibition of cell growth incubated for 72 hrs by MTT assay. It counts as functional, cell-based. The settings on record: KG-1, 72 h.
Data set [3] deals with MOLT-4. Put plainly: Antiproliferative activity against human MOLT-4 cells assessed as inhibition of cell growth incubated for 72 hrs by MTT assay. It is filed as functional, cell-based. Particulars: MOLT-4, 72 h.
In data set [4] the test system is HEL. Put plainly: Antiproliferative activity against human HEL cells assessed as inhibition of cell growth incubated for 72 hrs by MTT assay. It is filed as functional, cell-based.
In another data set the test system is A549. Put plainly: Antiproliferative activity against human A549 cells.
Data set [5] deals with MDA-MB-231. Kind of data set: Antiproliferative activity against human MDA-MB-231 cells.
The next data set has as its target Histone deacetylase 2 (Homo sapiens, UniProt Q92769). Put plainly: Inhibition of HDAC2 (unknown origin).
In another data set the test system is HT-29. Kind of data set: Antiproliferative activity against human HT-29 cells. It is filed as functional, cell-based.
The nature of data set [6]: Cytotoxicity against human NFF cells. It counts as toxicity, cell-based.
The subject of a further data set is HeLa. Kind of data set: Antiproliferative activity against human HeLa cells. It is filed as functional, cell-based.
The test system of a further data set is MM96L. Put plainly: Antiproliferative activity against human MM96L cells. It is filed as functional, cell-based.
For data set [7], the system named is K562. Kind of data set: Antiproliferative activity against human K562 cells measured after 72 hrs by CCK-8 assay. It is filed as functional, cell-based. The settings on record: K562, 72 h.
The next data set has as its system MV4-11. Put plainly: Antiproliferative activity against human MV4-11 cells measured after 72 hrs by CCK-8 assay. It is filed as functional, cell-based. The settings on record: MV4-11, 72 h.
For data set [8], the system named is HEL. Kind of data set: Antiproliferative activity against human HEL cells measured after 72 hrs by CCK-8 assay. It counts as functional, cell-based.
The test system of the next data set is SU-DHL-2. Put plainly: Antiproliferative activity against human SU-DHL-2 cells measured after 72 hrs by CCK-8 assay. It is filed as functional, cell-based. Particulars: SU-DHL-2, 72 h.
Data set [9] has as its system WSUDLCL2. Kind of data set: Antiproliferative activity against human WSUDLCL2 cells measured after 72 hrs by CCK-8 assay. It is filed as functional, cell-based. The settings on record: WSUDLCL2, 72 h.
Data set [10] concerns WSUDLCL2. Kind of data set: Antitumor activity against human WSUDLCL2 cells xenografted in mouse assessed as tumor growth inhibition at 50 mg/kg, ip administered for 21 days. It is filed as functional. The settings on record: WSUDLCL2, 504 h, time 21 day, read-out: TGI. A general note: In xenograft studies the graft and the host belong to different species.
A further data set deals with Jurkat. Kind of data set: Antiproliferative activity against human Jurkat cells. It is filed as functional, cell-based.
The test system of another data set is HL-60. Put plainly: Antiproliferative activity against human HL-60 cells. It counts as functional, cell-based.
Data set [11] in a line: Cytotoxicity against HEK293 cells. Particulars: human. It is filed as toxicity, cell-based.
The test system of another data set is HL60/ADR. Kind of data set: Antiproliferative activity against human HL-60/ADR cells.
A short description of data set [12]: Antiproliferative activity against human HL-60/Vinc cells. The settings on record: HL60/vinc.
A further data set relates to HCT-116. Put plainly: cells. Particulars: Homo sapiens.
The subject of data set [13] is MCF7. Kind of data set: cells. The settings on record: Homo sapiens.
For data set [14], the target named is T1, Protein deacetylase HDAC6 (Homo sapiens, UniProt Q9UBN7).
T1 sequence (Q9UBN7 whole entry): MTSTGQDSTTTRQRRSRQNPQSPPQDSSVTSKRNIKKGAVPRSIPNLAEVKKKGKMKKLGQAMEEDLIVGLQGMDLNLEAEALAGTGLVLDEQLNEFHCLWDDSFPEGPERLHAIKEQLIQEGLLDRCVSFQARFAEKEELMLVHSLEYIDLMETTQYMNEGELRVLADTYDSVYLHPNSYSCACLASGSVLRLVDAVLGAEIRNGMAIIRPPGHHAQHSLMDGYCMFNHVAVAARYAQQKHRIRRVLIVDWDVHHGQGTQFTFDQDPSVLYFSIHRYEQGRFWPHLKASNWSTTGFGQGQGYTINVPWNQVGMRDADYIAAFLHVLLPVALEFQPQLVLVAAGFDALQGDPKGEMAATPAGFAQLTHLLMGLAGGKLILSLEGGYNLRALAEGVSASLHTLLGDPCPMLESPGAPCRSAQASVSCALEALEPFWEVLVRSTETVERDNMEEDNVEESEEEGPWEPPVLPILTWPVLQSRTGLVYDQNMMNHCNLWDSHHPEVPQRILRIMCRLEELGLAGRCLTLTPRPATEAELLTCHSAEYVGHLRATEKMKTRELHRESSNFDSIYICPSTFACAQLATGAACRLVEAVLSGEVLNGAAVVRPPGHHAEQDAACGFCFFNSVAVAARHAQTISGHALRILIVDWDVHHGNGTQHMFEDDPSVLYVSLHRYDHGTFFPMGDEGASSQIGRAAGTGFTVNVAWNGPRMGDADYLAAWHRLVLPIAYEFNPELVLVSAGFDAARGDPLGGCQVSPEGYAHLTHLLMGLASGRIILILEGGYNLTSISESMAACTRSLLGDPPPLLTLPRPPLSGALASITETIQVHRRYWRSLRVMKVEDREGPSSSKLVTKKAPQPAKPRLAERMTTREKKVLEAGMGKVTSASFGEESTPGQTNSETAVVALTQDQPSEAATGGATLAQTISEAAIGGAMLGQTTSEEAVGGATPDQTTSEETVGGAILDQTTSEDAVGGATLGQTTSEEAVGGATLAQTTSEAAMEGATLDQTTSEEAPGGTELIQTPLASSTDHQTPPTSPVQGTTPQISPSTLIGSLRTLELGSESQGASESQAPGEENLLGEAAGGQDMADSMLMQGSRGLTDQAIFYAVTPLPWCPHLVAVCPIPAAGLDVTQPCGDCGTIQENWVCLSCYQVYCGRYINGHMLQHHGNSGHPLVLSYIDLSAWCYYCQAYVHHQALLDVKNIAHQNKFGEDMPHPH
Put plainly: Inhibition of HDAC6 (unknown origin).

The test system of the next data set is TALL-1. Kind of data set: Antiproliferative activity against human TALL-1 cells. It counts as functional, cell-based.
A further data set concerns CCRF-HSB-2. Put plainly: Antiproliferative activity against human CCRF-HSB-2 cells. It is filed as functional, cell-based.
The test system of data set [15] is MOLT-4. Put plainly: Antiproliferative activity against human MOLT-4 cells. It counts as functional, cell-based.
The test system of data set [16] is K562. Kind of data set: Antiproliferative activity against human K562 cells. It counts as functional, cell-based.
For another data set, the target named is Histone deacetylase 1 (Homo sapiens, UniProt Q13547). Kind of data set: Inhibition of HDAC1 (unknown origin) preincubated for 10 mins followed by substrate addition and measured after 30 mins by fluorescence based microplate reader analysis.

Bounds are passed on as bounds.

Chain of Histone deacetylase 1 (Q13547 whole entry): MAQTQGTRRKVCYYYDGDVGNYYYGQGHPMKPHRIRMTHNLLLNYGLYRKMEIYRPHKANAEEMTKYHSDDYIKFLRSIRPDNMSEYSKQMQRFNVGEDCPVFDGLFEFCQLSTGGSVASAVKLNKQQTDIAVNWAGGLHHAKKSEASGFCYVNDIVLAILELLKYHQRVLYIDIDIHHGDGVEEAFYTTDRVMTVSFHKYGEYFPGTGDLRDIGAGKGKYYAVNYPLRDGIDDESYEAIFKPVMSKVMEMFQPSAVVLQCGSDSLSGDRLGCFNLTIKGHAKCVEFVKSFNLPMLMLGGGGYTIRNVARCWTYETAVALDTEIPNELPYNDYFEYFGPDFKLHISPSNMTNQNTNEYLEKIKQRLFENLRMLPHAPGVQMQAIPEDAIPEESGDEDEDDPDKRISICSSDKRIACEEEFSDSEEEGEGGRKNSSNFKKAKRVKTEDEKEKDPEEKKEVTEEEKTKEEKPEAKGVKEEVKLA
Chain of Histone deacetylase 2 (Q92769 whole entry): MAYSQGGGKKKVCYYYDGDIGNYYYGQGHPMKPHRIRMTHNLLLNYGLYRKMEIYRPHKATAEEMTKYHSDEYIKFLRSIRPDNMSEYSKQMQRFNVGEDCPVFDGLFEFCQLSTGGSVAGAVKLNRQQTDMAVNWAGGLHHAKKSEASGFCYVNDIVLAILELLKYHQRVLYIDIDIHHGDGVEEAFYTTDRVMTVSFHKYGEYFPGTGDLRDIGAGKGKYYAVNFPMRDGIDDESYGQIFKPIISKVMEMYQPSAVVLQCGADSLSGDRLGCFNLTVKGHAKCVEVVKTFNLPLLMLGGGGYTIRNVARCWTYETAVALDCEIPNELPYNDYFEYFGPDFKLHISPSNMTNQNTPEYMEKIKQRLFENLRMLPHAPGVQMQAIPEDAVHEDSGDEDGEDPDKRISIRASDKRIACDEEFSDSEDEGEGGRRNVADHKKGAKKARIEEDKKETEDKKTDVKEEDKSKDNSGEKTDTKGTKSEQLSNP
Description for HCT-116: Antiproliferative activity against human HCT-116 cells

For the compound `Nc1nc2ccc(OC(F)(F)F)cc2s1` [RILUZOLE], the 50% inhibitory concentration (IC50) in the data set with MDA-MB-231 [1], in the data set on MCF7 [2], with PC-3, in the data set on SK-N-BE(2), in the data set on KG-1 and with MOLT-4 [3] was over 10 µM in each case. In the data set with HEL [4], the IC50 was over 10 µM.

As to `O=C(NO)c1ccc(NC(=O)C2(c3ccc(-c4cn[nH]c4)cc3)CCCCC2)cc1`, the IC50 in the data set on A549 stood at 0.05 µM; in the data set with MDA-MB-231 [5], 0.05 µM; against Histone deacetylase 2, 0.002 µM; in the data set on HT-29, 0.05 µM; in [6] it was 0.05 µM; with HeLa, 0.05 µM. Besides, the midpoint of inhibition in the data set on MM96L, the IC50, lay at 0.05 µM.

As to `C=C[C@@]1(C)CC[C@H](C(=C)CN2CCN(C(=O)CCCCCCC(=O)NO)CC2)C[C@@H]1C(=C)Cn1cccn1`, the IC50 with K562 [7], in the data set on MV4-11, in the data set with HEL [8], with SU-DHL-2 and in the data set on WSUDLCL2 [9] was 0.79 µM each time. Moreover, the inhibition in vivo at 50 mg/kg in the data set on WSUDLCL2 [10] was 31.5%.

For `CN(C)c1nc2c(Br)c(Br)c(Br)c(Br)c2n1CCCCCCCC(=O)NO`, the IC50 (with Jurkat; in the data set with HL-60; in [11]; in the data set on HL60/ADR; in [12]; in the data set on HCT-116) was 2.32 µM each time. The compound also had an IC50 with MCF7 [13] of 2.32 µM.

As for `O=C(NO)c1ccc(CN(Cc2nnnn2Cc2ccccc2)C(=O)c2ccccc2C(F)(F)F)cc1`, the IC50 turned out to be 0.06 µM in data set [14]; 22.5 µM in the data set with Jurkat; 22.5 µM in the data set with HL-60; 22.5 µM with TALL-1; 22.5 µM with CCRF-HSB-2; 22.5 µM in the data set with MOLT-4 [15]. Moreover, the IC50 in the data set on K562 [16] is 22.5 µM.

Turning to `C=C[C@]1(C)CC[C@@H](C(=C)Cn2cccn2)C[C@H]1C(=C)CN1CCN(C(=O)CCCCCCC(=O)NO)CC1`, the IC50 in the data set with K562 [7] stood at 1 µM; in the data set on MV4-11 it was 1 µM; with HEL [8], 1 µM; with SU-DHL-2, 1 µM; in the data set on WSUDLCL2 [9], 1 µM; at Histone deacetylase 1, 0.008 µM.
